Data on one compound can be found in paper PMC7352342, “Inhibition of Patched Drug Efflux Increases Vemurafenib Effectiveness against Resistant Braf^V600E Melanoma” (Cancers, 2020).

Where “and” joins values, the source holds several entries; their conditions need not be identical. Equal entries are not always repeated.

One assay deals with T1, human Ptch1 (Homo sapiens, UniProt Q13635).
T1 construct: made in house; host or cells: yeast (membrane preparation)
T1 sequence (Q13635 1-1447): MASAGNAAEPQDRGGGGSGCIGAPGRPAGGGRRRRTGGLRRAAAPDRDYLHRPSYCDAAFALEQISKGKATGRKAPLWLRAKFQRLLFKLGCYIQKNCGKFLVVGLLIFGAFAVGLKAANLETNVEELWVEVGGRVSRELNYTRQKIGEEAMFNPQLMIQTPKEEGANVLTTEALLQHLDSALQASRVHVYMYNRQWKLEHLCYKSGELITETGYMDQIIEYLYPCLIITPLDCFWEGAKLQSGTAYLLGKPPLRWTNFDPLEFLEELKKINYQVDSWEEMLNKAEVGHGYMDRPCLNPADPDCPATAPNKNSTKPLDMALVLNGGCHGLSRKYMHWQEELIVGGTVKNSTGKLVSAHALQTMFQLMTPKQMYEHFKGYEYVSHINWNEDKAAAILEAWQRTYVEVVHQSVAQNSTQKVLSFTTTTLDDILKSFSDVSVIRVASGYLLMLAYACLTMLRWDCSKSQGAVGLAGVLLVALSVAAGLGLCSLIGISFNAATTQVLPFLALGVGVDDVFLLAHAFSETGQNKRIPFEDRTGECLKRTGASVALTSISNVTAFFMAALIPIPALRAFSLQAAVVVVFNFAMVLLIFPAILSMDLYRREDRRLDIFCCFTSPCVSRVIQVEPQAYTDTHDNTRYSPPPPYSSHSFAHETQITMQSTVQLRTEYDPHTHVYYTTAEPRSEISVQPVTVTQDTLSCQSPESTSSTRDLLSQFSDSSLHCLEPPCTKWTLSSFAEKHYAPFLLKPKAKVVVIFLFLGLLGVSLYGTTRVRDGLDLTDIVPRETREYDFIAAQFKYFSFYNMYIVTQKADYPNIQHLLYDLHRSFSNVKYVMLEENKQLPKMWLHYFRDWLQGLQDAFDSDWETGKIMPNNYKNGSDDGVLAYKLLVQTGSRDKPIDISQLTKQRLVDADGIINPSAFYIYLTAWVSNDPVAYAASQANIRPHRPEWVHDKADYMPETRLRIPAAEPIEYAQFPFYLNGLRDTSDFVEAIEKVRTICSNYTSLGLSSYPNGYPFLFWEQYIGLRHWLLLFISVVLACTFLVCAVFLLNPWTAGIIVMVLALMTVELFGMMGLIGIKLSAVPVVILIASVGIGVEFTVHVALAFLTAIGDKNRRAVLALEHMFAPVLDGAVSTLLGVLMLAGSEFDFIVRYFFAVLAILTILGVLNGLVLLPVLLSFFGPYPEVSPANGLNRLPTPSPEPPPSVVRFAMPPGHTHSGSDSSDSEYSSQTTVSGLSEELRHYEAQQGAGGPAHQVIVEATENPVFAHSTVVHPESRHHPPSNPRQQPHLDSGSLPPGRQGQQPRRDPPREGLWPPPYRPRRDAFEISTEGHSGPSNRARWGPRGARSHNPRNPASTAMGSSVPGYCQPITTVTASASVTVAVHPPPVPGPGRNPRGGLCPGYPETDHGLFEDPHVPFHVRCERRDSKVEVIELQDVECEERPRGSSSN
In words: Microscale thermophoresis on membranes from yeast expressing human Ptch1. It counts as binding. Conditions: membranes from yeast expressing hPtch1; MST; mean of 3 experiments. The protocol: Microscale thermophoresis (MST) is a biophysical technique that measures the strength of the interaction between two molecules by detecting a variation in the fluorescence signal of a fluorescently labeled target as a result of an IR-laser induced temperature change. The range of the variation in the fluorescence signal correlates with the binding of a ligand to the fluorescent target.
Membranes from yeast expressing human Ptch1 or human Smoothened were incubated at 30 µg/mL with 20 nM of the fluorescent dye NT-647 2nd gen (NanoTemper Technologies, München, Germany) to label the His-tag present at the c-terminus of both proteins. […] The fluorescence within the capillary is excited and detected through the same objective. […] The MST response of fluorescent proteins within the temperature gradient is detected. After activation of the IR laser, a decrease in fluorescence is observed which corresponds to temperature-related intensity change (TRIC) triggered by the fast temperature change and thermophoretic movement of the fluorescent proteins out of the heated sample volume. […] For analysis, the change in MST signal is expressed as the change in the normalized fluorescence (Fnorm), which is defined as F1/F0. […] The sPAH Kd was determined for 3 independent experiments.
A general note: In MST a laser heats a spot of the sample, and binding alters the fluorescence response.

For a further assay, the system named is MeWo cells. In words: Dxr efflux measurement by fluorescence microscopy, MeWo cells. It counts as cell-based, human. Conditions: 30 min in efflux buffer. The protocol:
Dxr efflux measurements were carried out as previously described. Cells were seeded on coverslips in 24-well plates and allowed to grow to 80% confluence. Coverslips were incubated at 37 °C and 5% CO2 with 10 μM dxr in physiological buffer (140 mM NaCl, 5 mM KCl, 1 mM CaCl2, 1 mM MgSO4, 5 mM glucose, 20 mM HEPES, pH 7.4). After 2 h, three coverslips were immediately fixed with 4% PFA for the dxr loading control, rapidly washed with PBS and mounted in SlowFade Gold antifade reagent with DAPI (Invitrogen). The other coverslips (triplicated per condition) were incubated with physiological buffer supplemented with DMSO or 10 µM of PAH under gentle shaking at room temperature and protected from light. After 30 min, coverslips were fixed with 4% PFA, washed, and mounted as described above. For competition on dxr loading, A375 and WM9R cells seeded on coverslips were incubated for 1 h at 37 °C and 5% CO2 with 10 μM dxr in physiological buffer in the presence or the absence of 100 µM vemurafenib. Images were acquired with a Zeiss Axioplan 2 fluorescence microscope coupled to a digital charge-coupled device camera using a 40×/1.3 Plan NeoFluar objective and filters for Alexa 594. Dxr fluorescence was quantified using ImageJ software. Sampling of cells was performed randomly. About 100 cells (from three wells) were scored per condition per experiment.

As to `COc1cc(C)c(CC/C(C)=C/Cc2cc(O)ccc2O)c(C)c1C` [sPAH, Panicein A hydroquinone], the Kd (in general, the free concentration of one partner at which half of the binding sites on the other are occupied at equilibrium, for simple one-to-one binding) at human Ptch1 is ~7 µM and 7.2 µM. Further, the “inhibition of dxr efflux, synthetic compared with natural PAH” value in the assay on MeWo cells was “as efficiently as the natural PAH”.
